Measured values published in paper PMC11206987, “Investigation of the Efficacy of Benzylidene-3-methyl-2-thioxothiazolidin-4-one Analogs with Antioxidant Activities on the Inhibition of Mushroom and Mammal Tyrosinases” (Molecules, 2024).
Like-named read-outs stand apart in the source and are kept apart here.

Columns and labels:
[1] = ABTS+ radical scavenging activity assay; settings: 100 µM
Description: Second, the ability of BMTTZD analogs to scavenge ABTS^+ radicals was examined. ABTS^+ radicals were obtained via the oxidation of ABTS using potassium persulfate. All samples (Trolox (positive control) and 1–8) were tested at 100 µM.
The ability of the BMTTZD analogs to scavenge ABTS^+ radicals was assessed as previously described, with minor modifications. To a 50 mL tube were added 20 mL aqueous K2S2O8 solution (2.45 mM) and 20 mL aqueous ABTS solution (7 mM). The combined mixture was placed at 22 °C in a place without light for 17 h to generate the ABTS^+ radicals. For adequate absorbance control (0.70 ± 0.02 at 734 nm), methanol was added to the combined mixture. Test compounds (Trolox and analogs 1–8; 10 µL in 10% DMSO/90% EtOH [v/v] solution) were mixed with 90 µL ABTS^+ radical solution. After storage in a place without light for 2 min, the well absorbance at 734 nm was acquired for 10 min every 1 min by using a microplate reader (VersaMax®). All test compounds were tested at 100 µM. The activity of the analogs was compared to that of Trolox.

[2] = target: T1, B16F10 cellular tyrosinase (Mus musculus, UniProt P11344); experiment: Cellular tyrosinase activity assay in B16F10 cells stimulated with IBMX plus α-MSH; type: cell-based, murine; settings: 72 h
T1 construct: host or cells: B16F10 cells
T1 sequence (P11344 19-533): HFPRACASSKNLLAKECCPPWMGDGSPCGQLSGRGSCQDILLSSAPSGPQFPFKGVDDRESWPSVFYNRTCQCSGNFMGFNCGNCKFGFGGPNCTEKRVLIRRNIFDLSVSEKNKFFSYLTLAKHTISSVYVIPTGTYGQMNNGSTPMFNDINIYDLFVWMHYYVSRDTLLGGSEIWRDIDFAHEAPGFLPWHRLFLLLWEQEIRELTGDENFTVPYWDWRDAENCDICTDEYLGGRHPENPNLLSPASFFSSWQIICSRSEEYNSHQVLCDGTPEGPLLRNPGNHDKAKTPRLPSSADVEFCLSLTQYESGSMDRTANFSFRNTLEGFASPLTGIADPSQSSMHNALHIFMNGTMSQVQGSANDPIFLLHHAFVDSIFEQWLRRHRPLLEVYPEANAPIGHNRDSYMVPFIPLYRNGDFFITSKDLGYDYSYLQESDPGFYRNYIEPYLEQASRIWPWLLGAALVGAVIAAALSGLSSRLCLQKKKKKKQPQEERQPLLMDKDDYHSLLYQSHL
Description: Analogs 1, 3, and 5 were exposed to B16F10 cells at various concentrations (20, 10, 5, and 0 µM) before exposure to IBMX (200 µM; 3-isobutyl-1-methylxanthine) and α-MSH (1 µM; α-melanocyte-stimulating hormone). After incubation (72 h), B16F10 cellular tyrosinase activity was determined. […] It was examined whether the cellular tyrosinase inhibition of the BMTTZD analogs could influence B16F10 cellular melanin contents.
Effects on B16F10 tyrosinase inhibition were evaluated as previously described. A 6-well plate containing 1 × 10^5 B16F10 cells/well was cultivated for 23 h under conditions identical to those of the cell culture. […] The cells were cultivated for 72 h. After washing 2 times with PBS, the cells were lysed in a 100 µL lysis buffer, including phenylmethylsulfonyl fluoride (5 µL; 1 mM), Triton X-100 (5 µL; 1%), and phosphate buffer (90 µL; 50 mM (pH 6.5)). After 30 min incubation at −80 °C, the cell lysates were centrifuged at 4 °C for 30 min. The supernatants (80 µL) of the lysates were moved to each well of a microplate and mixed with 20 µL 10 mM L-dopa.

[3] = DPPH radical scavenging activity assay; settings: 500 µM
Description: First, the ability of BMTTZD analogs 1–8 to scavenge DPPH radicals was examined using L-ascorbic acid (vitamin C; positive control). All samples were tested at 500 µM.
The ability of the BMTTZD analogs to scavenge DPPH radicals was evaluated as previously reported. To each well of a 96-well plate containing analogs 1–8 (5 mM in […]; 20 µL) was added a DPPH solution (0.2 mM in methanol; 180 µL). The mixture was kept in a place without light for 30 min at 25°C to generate DPPH radicals. The well absorbance at 517 nm was measured utilizing a VersaMax® reader. The ability of the analogs to remove DPPH radicals was compared to that of vitamin C.

[4] = test system: mushroom tyrosinase; experiment: Mushroom tyrosinase inhibition assay (dopachrome, 475 nm); type: biochemical; settings: for IC50: mushroom tyrosinase
Description: The ability of the BMTTZD analogs to inhibit mushroom tyrosinase was evaluated in the presence of L-dopa and L-tyrosine as previously described.

[5] = test system: B16F10 cells; experiment: Cell cytotoxicity test (EZ-Cytox); type: cell-based, murine; settings: 2.5–20 µM, 48 and 72 h
Description: Because analogs 1–3 and 5 exerted potent mushroom tyrosinase inhibitory activities, their effects on anti-melanogenic and cellular tyrosinase activities were evaluated in B16F10 murine cells. Prior to examining their cellular activity, their cell viabilities were investigated. Cell viability was evaluated at 48 and 72 h after treatment with five different concentrations of analogs.
The effect on B16F10 cytotoxicity was assessed following a previously described method. Cells (1 × 10^4 cells/well of a 96-well plate) were cultivated for 24 h with 5% CO2 at 37 °C. The cells were exposed to the BMTTZD analogs (test concentrations: 20, 10, 5, 2.5, and 0 µM) and cultivated with 5% CO2 at 37 °C for 72 h. An EZ-Cytox solution (10 µL; EZ-500, DoGenBio, Seoul, Republic of Korea) was exposed to each well, and the plate was cultivated for 2 h. Cell viability was calculated from the well absorbance measured at 450 nm utilizing a reader (VersaMax®).

[6] = target: T1, B16F10 cellular tyrosinase; experiment: In situ cellular tyrosinase activity assay using L-dopa staining; type: cell-based, murine; settings: 72 h
Description: Because tyrosinase plays a critical role in melanogenesis, in situ intracellular tyrosinase activity was measured. The in situ intracellular tyrosinase activity was evaluated in B16F10 cells following a previously reported procedure. Stimulators (α-MSH plus IBMX) were exposed to cells to raise tyrosinase activity levels, and analogs 1, 3, and 5 were treated at 20, 10, and 5 µM for 72 h. After fixation and permeabilization using paraformaldehyde and Triton X-100, the cells were stained with L-dopa.
A 24-well plate containing 1 × 10^3 B16F10 cells/well was cultivated for 24 h under conditions identical to those of the cell culture. […] The cells were then cultivated under conditions identical to those of the cell culture for 72 h. Cultivated cells were fixed for 40 min with paraformaldehyde (4%), washed 2 times with PBS, and permeabilized with Triton X-100 (0.1%) for 2 min. After washing 2 times with PBS, the cells in the 24-well plate were stained with a 2 mM L-dopa aqueous solution (500 µL/well) for 2 h at 37 °C. Staining was photographed and analyzed utilizing a camera connected to a microscope (Motic, Hong Kong).

SMILES: CN1C(=O)/C(=C/c2ccc(O)cc2O)SC1=S [Analog 3, (Z)-5-(2,4-Dihydroxybenzylidene)-3-methyl-2-thioxothiazolidin-4-one]
- ABTS^+ radical scavenging activity [1]: 95%
- effect on stimulator-induced cellular tyrosinase activity ([2]; 5, 10, 20 µM, IBMX plus α-MSH): concentration-dependently and significantly reduced
- cellular tyrosinase inhibition compared with kojic acid (20 µM) ([2]; analog at 10 µM): slightly more strongly than kojic acid
- cellular tyrosinase inhibition compared with kojic acid (20 µM) ([2]; analog at highest concentration tested (20 µM)): stronger inhibitory effects than kojic acid
- DPPH radical scavenging activity [3]: 82%
- tyrosinase inhibition, fold stronger than kojic acid ([4]; substrate L-dopa): 22 fold
- IC50 ([4]; substrate L-dopa, read-out: IC50 (Mean ± SEM, µM) L-Dopa): 1.12 ± 0.06 µM
- tyrosinase inhibition, times stronger than kojic acid ([4]; substrate L-tyrosine): 220 times
- IC50 ([4]; substrate L-tyrosine, read-out: IC50 (Mean ± SEM, µM) L-Tyrosine): 0.08 ± 0.02 µM
- cytotoxicity (cell viability) [5]: did not exhibit cytotoxicity at ≤20 µM
- in situ intracellular tyrosinase inhibition compared with kojic acid ([6]; 20 µM): tyrosinase inhibition stronger than did kojic acid
- effect on stimulator-raised in situ intracellular tyrosinase activity (L-dopa staining) ([6]; analogs 5, 10, 20 µM, kojic acid 20 µM): concentration-dependently reduced the stimulator-enhanced intracellular tyrosinase inhibition
